Source: publication PMC12332667, “Role of Structural Modifications in Peptidomimetic Compounds as Potential Antimicrobial Agents against Staphylococcus aureus and Streptococcus pyogenes: Balancing Bioavailability, Safety, and Antimicrobial Activity” (ACS Omega, 2025)
Values after ≈ are worked out from the molar mass of the structure shown. Values joined by “and” are separate entries in the source; they are usually repeats but may differ in a detail not shown here. Equal values may be shown once. Residues, ends and D or L forms follow the SMILES beside them.

How the values were obtained:
S. pyogenes ATCC 19615 = experiment: MIC/MBC broth microdilution, S. pyogenes; type: cell-based, Streptococcus pyogenes; conditions: S. pyogenes
Outline: (§1)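 Standard NCCLS broth microdilution in BHI broth, inoculum approx. 10^5 CFU/mL, serially diluted peptidomimetics, 18 h at 37 °C. MIC was the lowest concentration with no obvious growth (≥90% inhibition versus untreated); MBC was the lowest giving ≤3 colonies on subculture (≥99.9% kill).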

S. cohnii c.i. = experiment: MIC/MBC broth microdilution, S. cohnii; type: cell-based, Staphylococcus cohnii
Outline: as §1

E. faecalis c.i. = experiment: MIC/MBC broth microdilution, E. faecalis; type: cell-based, Enterococcus faecalis
Outline: as §1

S. agalactiae ATCC 27956 = experiment: MIC/MBC broth microdilution, S. agalactiae; type: cell-based, Streptococcus agalactiae; conditions: S. agalactiae
Outline: as §1

S. intemrdius c.i. = experiment: MIC/MBC broth microdilution, S. intermedius; type: cell-based, Staphylococcus intermedius
Outline: as §1

E. coli ATCC 25922 = experiment: MIC/MBC broth microdilution, E. coli; type: cell-based, Escherichia coli
Outline: as §1

P. aeruginosa ATCC 10145 = experiment: MIC/MBC broth microdilution, P. aeruginosa; type: cell-based
Outline: as §1

[1] = Hydrophobicity by reverse-phase chromatography; type: physicochemical; conditions: acetonitrile content in the mobile phase at the retention time
Text: Reverse-phase chromatography was employed to assess the hydrophobicity characteristics of the peptidomimetics. Hydrophobicity was quantified by determining the acetonitrile content in the mobile phase at the retention time of a peptidyl derivative (Table S2). The least hydrophobic compound (40% acetonitrile) was A-198, which aligns with the calculations of hydrophobicity by SwissADME and pkCSM (Table ). Next in the hydrophobicity sequence were A-197, A-220, A-219, A-174, and A-221, eluting with 42.5-43.9% of acetonitrile. Then there were followed by […], and A-179, with the acetonitrile percentage of 44.8-49.8. The compounds A-176, A-20, A-152, A-134, and A-210 needed over 50% of acetonitrile to be eluted from the column.

fibroblasts (46BR.1N) = experiment: LDH cytotoxicity test, fibroblasts; type: cell-based; conditions: for cytotoxicity (LDH), in words / concentration at which cytotoxic effect starts: 48 h; for cytotoxicity (LDH), in words: 50-150 μg/mL; for concentration at which cytotoxic effect starts: LDH
Outline: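 HaCaT keratinocytes and 46BR.1N fibroblasts, 5000 cells per well, grown 24 h, then exposed to peptidomimetics at 50, 100 and 150 μg/mL in serum-free medium for 48 h. LDH release in supernatant read at 450 nm, normalized to untreated (0%) and 1% Triton X-100 (maximal) controls.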

SMILES | MBC (S. pyogenes ATCC 19615; H2O) [µg/mL] | MIC (S. pyogenes ATCC 19615; H2O) [µg/mL] | MBC (S. pyogenes ATCC 19615; water additive DMSO) [µg/mL] | MIC (S. pyogenes ATCC 19615; water additive DMSO) [µg/mL] | MBC (S. pyogenes ATCC 19615; water additive EtOH) [µg/mL] | MIC (S. pyogenes ATCC 19615; water additive EtOH) [µg/mL] | MBC (S. cohnii c.i.; water additive DMSO) [µg/mL] | MIC (E. faecalis c.i.; H2O) [µg/mL] | MIC (E. faecalis c.i.; water additive DMSO) [µg/mL] | MIC (E. faecalis c.i.; water additive EtOH) [µg/mL] | MIC (S. agalactiae ATCC 27956; H2O) [µg/mL] | MIC (S. agalactiae ATCC 27956; water additive EtOH) [µg/mL] | MIC (E. coli ATCC 25922; H2O) [µg/mL] | MIC (E. coli ATCC 25922; water additive DMSO) [µg/mL] | MIC (E. coli ATCC 25922; water additive EtOH) [µg/mL] | MBC (P. aeruginosa ATCC 10145; H2O) [µg/mL] | MIC (P. aeruginosa ATCC 10145; water additive EtOH) [µg/mL] | % AcCN (acetonitrile required for elution from the column) [1] | cytotoxicity (LDH), in words (fibroblasts (46BR.1N)) | MIC (P. aeruginosa ATCC 10145; water additive DMSO) [µg/mL] | other results
CC(C)[C@@H](CNC(=O)C(=Cc1ccccc1)c1ccccc1)NC(=O)[C@H](CCCNC(=N)N)NC(=O)[C@H](CCCCNC(=N)N)NC(=O)OCc1ccccc1 [Compound A-192] | 8 (≈ 10.4 µM) | 8 (≈ 10.4 µM) | 8 (≈ 10.4 µM) | 8 (≈ 10.4 µM) | 8 (≈ 10.4 µM) | 4 (≈ 5.2 µM) | 32 (≈ 41.6 µM) | > 512 | > 512 | 256 (≈ 333 µM) | 32 (≈ 41.6 µM) | 32 (≈ 41.6 µM) | > 512 | 256 (≈ 333 µM) | > 512 | 256 (≈ 333 µM) | > 512 | 44.8–49.8% and 48.7% | much lower | – | MBC (S. cohnii c.i.; H2O): 32 µg/mL (≈ 41.6 µM); MIC (S. cohnii c.i.; H2O): 16 µg/mL (≈ 20.8 µM); MIC (S. cohnii c.i.; water additive DMSO): 32 µg/mL (≈ 41.6 µM); MBC (S. cohnii c.i.; water additive EtOH): 32 µg/mL (≈ 41.6 µM); MIC (S. cohnii c.i.; water additive EtOH): 16 µg/mL (≈ 20.8 µM); MBC (E. faecalis c.i.; water additive EtOH): 512 µg/mL (≈ 666 µM); MBC (S. intemrdius c.i.; H2O): 16 µg/mL (≈ 20.8 µM); MIC (S. intemrdius c.i.; H2O): 8 µg/mL (≈ 10.4 µM); MBC (S. intemrdius c.i.; water additive DMSO): 16 µg/mL (≈ 20.8 µM); MIC (S. intemrdius c.i.; water additive DMSO): 8 µg/mL (≈ 10.4 µM); MBC (S. intemrdius c.i.; water additive EtOH): 16 µg/mL (≈ 20.8 µM); MIC (S. intemrdius c.i.; water additive EtOH): 8 µg/mL (≈ 10.4 µM); MBC (E. coli ATCC 25922; water additive DMSO): 512 µg/mL (≈ 666 µM)
CC(C)[C@@H](CNC(=O)C(=Cc1ccccc1)c1ccccc1)NC(=O)[C@H](Cc1c[nH]cn1)NC(=O)[C@H](CCCCNC(=N)N)NC(=O)OCc1ccccc1 [Compound A-193] | 16 (≈ 21.3 µM) | 8 (≈ 10.7 µM) | 16 (≈ 21.3 µM) | 8 (≈ 10.7 µM) | 16 (≈ 21.3 µM) | 8 (≈ 10.7 µM) | 256 (≈ 341 µM) | 256 (≈ 341 µM) | 512 (≈ 683 µM) | – | – | 32 (≈ 42.7 µM) | 256 (≈ 341 µM) | > 512 | 256 (≈ 341 µM) | – | > 512 | 49.0% and 44.8–49.8% | cytotoxic only at a concentration of 150 μg/mL | 512 (≈ 683 µM) | MBC (E. faecalis c.i.; H2O): 512 µg/mL (≈ 683 µM); MBC (E. faecalis c.i.; water additive EtOH): 256 µg/mL (≈ 341 µM); MBC (S. intemrdius c.i.; H2O): 32 µg/mL (≈ 42.7 µM); MIC (S. intemrdius c.i.; H2O): 16 µg/mL (≈ 21.3 µM); MIC (S. intemrdius c.i.; water additive DMSO): 32 µg/mL (≈ 42.7 µM); MBC (S. intemrdius c.i.; water additive EtOH): 32 µg/mL (≈ 42.7 µM); MIC (S. intemrdius c.i.; water additive EtOH): 16 µg/mL (≈ 21.3 µM); MBC (E. coli ATCC 25922; H2O): 256 µg/mL (≈ 341 µM); MBC (E. coli ATCC 25922; water additive EtOH): 512 µg/mL (≈ 683 µM); MIC (P. aeruginosa ATCC 10145; H2O): > 512 µg/mL; concentration at which cytotoxic effect starts (fibroblasts (46BR.1N)): 150 µg/mL
CC(C)[C@H](NC(=O)[C@H](Cc1c[nH]cn1)NC(=O)[C@H](CCCNC(=N)N)NC(=O)OCc1ccccc1)C(=O)NCCc1ccccc1 [Compound A-219] (HELM PEPTIDE1{[O=C(OCc1ccccc1)[*:2]].R.H.V.[c1ccc(CCN[*:1])cc1]}$$$$V2.0) | 512 (≈ 790 µM) | 512 (≈ 790 µM) | 512 (≈ 790 µM) | 512 (≈ 790 µM) | 512 (≈ 790 µM) | 512 (≈ 790 µM) | – | > 512 | > 512 | > 512 | > 512 | > 512 | > 512 | > 512 | > 512 | > 512 | 512 (≈ 790 µM) | 42.6% | slight cytotoxicity | 256 (≈ 395 µM) | MIC (S. cohnii c.i.; H2O): > 512 µg/mL; MIC (S. cohnii c.i.; water additive DMSO): > 512 µg/mL; MIC (S. cohnii c.i.; water additive EtOH): > 512 µg/mL; MIC (S. agalactiae ATCC 27956; water additive DMSO): > 512 µg/mL; MIC (P. aeruginosa ATCC 10145; H2O): 512 µg/mL (≈ 790 µM); MBC (P. aeruginosa ATCC 10145; water additive DMSO): 512 µg/mL (≈ 790 µM); MBC (P. aeruginosa ATCC 10145; water additive EtOH): > 512 µg/mL
CC(C)[C@H](NC(=O)[C@H](Cc1c[nH]cn1)NC(=O)[C@H](CCCCN)NC(=O)OCc1ccccc1)C(=O)NCCc1ccccc1 [Compound A-220] (HELM PEPTIDE1{[O=C(OCc1ccccc1)[*:2]].K.H.V.[c1ccc(CCN[*:1])cc1]}$$$$V2.0) | > 512 | 512 (≈ 826 µM) | 256 (≈ 413 µM) | – | 512 (≈ 826 µM) | 512 (≈ 826 µM) | 512 (≈ 826 µM) | > 512 | > 512 | > 512 | 512 (≈ 826 µM) | 512 (≈ 826 µM) | 512 (≈ 826 µM) | > 512 | 512 (≈ 826 µM) | > 512 | 512 (≈ 826 µM) | 42.4% | – | 512 (≈ 826 µM) | MBC (S. cohnii c.i.; H2O): 512 µg/mL (≈ 826 µM); MIC (S. cohnii c.i.; H2O): 256 µg/mL (≈ 413 µM); MIC (S. cohnii c.i.; water additive DMSO): 256 µg/mL (≈ 413 µM); MBC (S. cohnii c.i.; water additive EtOH): 512 µg/mL (≈ 826 µM); MIC (S. cohnii c.i.; water additive EtOH): 256 µg/mL (≈ 413 µM); MBC (S. agalactiae ATCC 27956; H2O): 512 µg/mL (≈ 826 µM); MBC (S. agalactiae ATCC 27956; water additive DMSO): 512 µg/mL (≈ 826 µM); MIC (S. agalactiae ATCC 27956; water additive DMSO): 512 µg/mL (≈ 826 µM); MBC (S. agalactiae ATCC 27956; water additive EtOH): 512 µg/mL (≈ 826 µM); MBC (E. coli ATCC 25922; H2O): 512 µg/mL (≈ 826 µM); MBC (E. coli ATCC 25922; water additive EtOH): 512 µg/mL (≈ 826 µM); MIC (P. aeruginosa ATCC 10145; H2O): 512 µg/mL (≈ 826 µM); MBC (P. aeruginosa ATCC 10145; water additive DMSO): > 512 µg/mL; MBC (P. aeruginosa ATCC 10145; water additive EtOH): > 512 µg/mL; cytotoxicity (LDH) (fibroblasts (46BR.1N); 48 h, 50, 100 and 150 μg/mL, vs 1% Triton X-100): 10–15% and 10%; concentration at which cytotoxic effect starts (fibroblasts (46BR.1N)): > 150 µg/mL
CC(C)[C@H](NC(=O)[C@H](CCCNC(=N)N)NC(=O)[C@H](CCCNC(=N)N)NC(=O)OCc1ccccc1)C(=O)NCCc1ccccc1 [Compound A-221] (HELM PEPTIDE1{[O=C(OCc1ccccc1)[*:2]].R.R.V.[c1ccc(CCN[*:1])cc1]}$$$$V2.0) | 256 (≈ 384 µM) | – | > 512 | 512 (≈ 768 µM) | 256 (≈ 384 µM) | – | 256 (≈ 384 µM) | > 512 | > 512 | > 512 | 256 (≈ 384 µM) | 256 (≈ 384 µM) | > 512 | > 512 | > 512 | 256 (≈ 384 µM) | – | 43.9% | slight cytotoxicity | 32 (≈ 48 µM) | MBC (S. cohnii c.i.; H2O): 256 µg/mL (≈ 384 µM); MBC (S. cohnii c.i.; water additive EtOH): 256 µg/mL (≈ 384 µM); MBC (S. agalactiae ATCC 27956; H2O): 512 µg/mL (≈ 768 µM); MBC (S. agalactiae ATCC 27956; water additive DMSO): 512 µg/mL (≈ 768 µM); MIC (S. agalactiae ATCC 27956; water additive DMSO): 256 µg/mL (≈ 384 µM); MBC (S. agalactiae ATCC 27956; water additive EtOH): 512 µg/mL (≈ 768 µM)
